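96-well plates; 48 h exposure; 5 concentrations. Endpoints by linear interpolation between flanking doses. Not reached: highest tested concentration assigned. TGI is the concentration that stops growth completely.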
Key:
Experiment in all cases: NCI anticancer screen, dose series, 48 h
HCT-116 colon = test system: HCT-116 colon
DU-145 prostate = test system: DU-145 prostate
HS 578T breast = test system: HS 578T breast
SNB-19 CNS = test system: SNB-19 CNS
786-0 renal = test system: 786-0 renal
KM12 colon = test system: KM12 colon
HOP-62 NSCLC = test system: HOP-62 NSCLC
OVCAR-8 ovarian = test system: OVCAR-8 ovarian
U251 CNS = test system: U251 CNS
A549 NSCLC = test system: A549 NSCLC
OVCAR-3 ovarian = test system: OVCAR-3 ovarian
SF-295 CNS = test system: SF-295 CNS
SK-OV-3 ovarian = test system: SK-OV-3 ovarian
EKVX NSCLC = test system: EKVX NSCLC
COLO 205 colon = test system: COLO 205 colon
MDA-MB-435 = test system: MDA-MB-435
MOLT-4 leukemia = test system: MOLT-4 leukemia
HL-60(TB) leukemia = test system: HL-60(TB) leukemia
HOP-92 NSCLC = test system: HOP-92 NSCLC
NCI/ADR-RES ovarian = test system: NCI/ADR-RES ovarian
UACC-62 melanoma = test system: UACC-62 melanoma
MDA-N = test system: MDA-N
NCI-H23 lung = test system: NCI-H23 lung
RXF 393 renal = test system: RXF 393 renal
HT29 colon = test system: HT29 colon
HCC-2998 colon = test system: HCC-2998 colon
OVCAR-5 ovarian = test system: OVCAR-5 ovarian
CCRF-CEM leukemia = test system: CCRF-CEM leukemia
NCI-H226 lung = test system: NCI-H226 lung
SN12C renal = test system: SN12C renal
OVCAR-4 ovarian = test system: OVCAR-4 ovarian
BT-549 breast = test system: BT-549 breast
SR leukemia = test system: SR leukemia
SF-268 CNS = test system: SF-268 CNS
PC-3 prostate = test system: PC-3 prostate
SK-MEL-5 melanoma = test system: SK-MEL-5 melanoma
SK-MEL-2 melanoma = test system: SK-MEL-2 melanoma
K-562 leukemia = test system: K-562 leukemia
HCT-15 colon = test system: HCT-15 colon
SK-MEL-28 melanoma = test system: SK-MEL-28 melanoma
T-47D breast = test system: T-47D breast
UO-31 renal = test system: UO-31 renal
NCI-H522 lung = test system: NCI-H522 lung
M14 melanoma = test system: M14 melanoma
MDA-MB-231 breast = test system: MDA-MB-231 breast
MALME-3M melanoma = test system: MALME-3M melanoma
ACHN renal = test system: ACHN renal
A498 renal = test system: A498 renal
CAKI-1 renal = test system: CAKI-1 renal
SF-539 CNS = test system: SF-539 CNS
LOX IMVI melanoma = test system: LOX IMVI melanoma
UACC-257 melanoma = test system: UACC-257 melanoma
NCI-H460 lung = test system: NCI-H460 lung
TK-10 renal = test system: TK-10 renal
RPMI-8226 leukemia = test system: RPMI-8226 leukemia
SNB-75 CNS = test system: SNB-75 CNS
SW-620 colon = test system: SW-620 colon

Work on Cc1ccc2nc(-c3ccc(N)c(Br)c3)sc2c1 yielded a TGI (HCT-116 colon) of over 100 µM, a TGI (DU-145 prostate) of over 100 µM and a TGI (HS 578T breast) of 43.6 µM. For the same molecule, the TGI (SNB-19 CNS) was over 100 µM, the TGI (786-0 renal) was over 100 µM and the TGI (KM12 colon) was 30.8 µM. The TGI (HOP-62 NSCLC) was 26.2 µM, the TGI (OVCAR-8 ovarian) was over 100 µM and the TGI (U251 CNS) was over 100 µM. For the same molecule, the TGI (A549 NSCLC) was over 100 µM, the TGI (OVCAR-3 ovarian) was 40.1 µM and the TGI (SF-295 CNS) was over 100 µM. The TGI (SK-OV-3 ovarian) was 88.4 µM, the TGI (EKVX NSCLC) was 58 µM and the TGI (COLO 205 colon) was over 100 µM. It also gave a TGI (MDA-MB-435) of 64.1 µM, a TGI (MOLT-4 leukemia) of 97.5 µM and a TGI (HL-60(TB) leukemia) of over 100 µM. For the same molecule, the TGI (HOP-92 NSCLC) was 50.6 µM, the TGI (NCI/ADR-RES ovarian) was over 100 µM and the TGI (UACC-62 melanoma) was over 100 µM. The TGI (MDA-N) was over 100 µM, the TGI (NCI-H23 lung) was 96.9 µM and the TGI (RXF 393 renal) was 50 µM. For the same molecule, the TGI (HT29 colon) was over 100 µM, the TGI (HCC-2998 colon) was 14.8 µM and the TGI (OVCAR-5 ovarian) was over 100 µM. For the same molecule, the TGI (CCRF-CEM leukemia) was 45.7 µM, the TGI (NCI-H226 lung) was over 100 µM and the TGI (SN12C renal) was over 100 µM. For the same molecule, the TGI (OVCAR-4 ovarian) was over 100 µM, the TGI (BT-549 breast) was 35.9 µM and the TGI (SR leukemia) was 43.2 µM. It also gave a TGI (SF-268 CNS) of over 100 µM, a TGI (PC-3 prostate) of over 100 µM and a TGI (SK-MEL-5 melanoma) of over 100 µM. The TGI (SK-MEL-2 melanoma) was 73.4 µM, the TGI (K-562 leukemia) was over 100 µM and the TGI (HCT-15 colon) was over 100 µM. It also gave a TGI (SK-MEL-28 melanoma) of over 100 µM, a TGI (T-47D breast) of 59.7 µM and a TGI (UO-31 renal) of 35.4 µM. It also gave a TGI (NCI-H522 lung) of 47.7 µM, a TGI (M14 melanoma) of over 100 µM and a TGI (MDA-MB-231 breast) of 86.4 µM. The TGI (MALME-3M melanoma) was over 100 µM, the TGI (ACHN renal) was over 100 µM and the TGI (A498 renal) was over 100 µM. It also gave a TGI (CAKI-1 renal) of over 100 µM, a TGI (SF-539 CNS) of over 100 µM and a TGI (LOX IMVI melanoma) of 30.4 µM. The TGI (UACC-257 melanoma) was 72.2 µM and the TGI (NCI-H460 lung) was 31.5 µM.
Work on COc1cc(OC)cc(-n2c(N)c(C#N)c3ccc([N+](=O)[O-])cc3c2=O)c1 yielded a TGI (TK-10 renal) of 69 µM, a TGI (HCT-116 colon) of over 100 µM and a TGI (DU-145 prostate) of 47.1 µM. For the same molecule, the TGI (HS 578T breast) was 87.6 µM, the TGI (SNB-19 CNS) was 40.4 µM and the TGI (786-0 renal) was 39.5 µM. For the same molecule, the TGI (KM12 colon) was over 100 µM, the TGI (OVCAR-8 ovarian) was 59.2 µM and the TGI (U251 CNS) was 52.4 µM. It also gave a TGI (A549 NSCLC) of over 100 µM, a TGI (COLO 205 colon) of over 100 µM and a TGI (MDA-MB-435) of over 100 µM. The TGI (RPMI-8226 leukemia) was over 100 µM, the TGI (HOP-92 NSCLC) was 44.9 µM and the TGI (NCI/ADR-RES ovarian) was over 100 µM. The TGI (UACC-62 melanoma) was over 100 µM, the TGI (MDA-N) was over 100 µM and the TGI (NCI-H23 lung) was over 100 µM. For the same molecule, the TGI (HT29 colon) was over 100 µM, the TGI (HCC-2998 colon) was over 100 µM and the TGI (SNB-75 CNS) was 60.6 µM. It also gave a TGI (NCI-H226 lung) of 51.6 µM, a TGI (SN12C renal) of 52.3 µM and a TGI (OVCAR-4 ovarian) of 52 µM. For the same molecule, the TGI (BT-549 breast) was over 100 µM, the TGI (SR leukemia) was 55.8 µM and the TGI (SF-268 CNS) was over 100 µM. For the same molecule, the TGI (PC-3 prostate) was over 100 µM, the TGI (SK-MEL-5 melanoma) was over 100 µM and the TGI (SK-MEL-2 melanoma) was over 100 µM. The TGI (K-562 leukemia) was over 100 µM, the TGI (HCT-15 colon) was over 100 µM and the TGI (SK-MEL-28 melanoma) was over 100 µM. For the same molecule, the TGI (T-47D breast) was over 100 µM, the TGI (UO-31 renal) was 74.9 µM and the TGI (SW-620 colon) was over 100 µM. It also gave a TGI (MDA-MB-231 breast) of 96.2 µM, a TGI (ACHN renal) of over 100 µM and a TGI (A498 renal) of 41.6 µM. It also gave a TGI (CAKI-1 renal) of 90.8 µM, a TGI (LOX IMVI melanoma) of over 100 µM and a TGI (UACC-257 melanoma) of over 100 µM. It also gave a TGI (NCI-H460 lung) of over 100 µM.

— PubChem BioAssay (NCI)
